Each block holds one molecule with its values, some of them ahead of it.
Experiments:
SW1573 [1] = conditions: Canon et al. 2019; cited from earlier work
SW1573 [2] = conditions: cited from earlier work
SW1573 cells = conditions: cited from earlier work
[3] = tested on: PAN02 tumors (SHP2 G503V); test: PAN02 syngeneic tumor model (Example 2); type: in vivo, mouse
[4] = tested on: PAN02 tumors (SHP2 G503V); test: PAN02 syngeneic tumor model (Example 5); type: in vivo, mouse; conditions: 100 mg/kg po qd and 250 mg/kg po qd
Method: (§1) Mice were implanted with (A) PAN02 tumor cells (1e6 cells/mouse) or (B) LN229 tumor cells in 50% matrigel (10e6 cells/mouse) subcutaneously in the flank. Once tumors reached an average size of ˜200 mm^3 mice were randomized to treatment groups and administration of test article or vehicle (2% HPMC E-50, 0.5% Tween-80 in 50 mM Sodium Citrate Buffer, pH 4.0). Body weight and tumor volume (using digital calipers) were measured twice a week until study endpoints. Compounds were administered by oral gavage daily.

LN229 tumors (SHP2 A72S) = test: LN229 CDX xenograft model (Example 5); type: in vivo, mouse; conditions: 100 mg/kg po qd
Method: as §1

[5] = tested on: KLN205 cells (SHP2 G503V); test: pERK AlphaLISA in KLN205 cells; type: cell-based, mouse; conditions: KLN205, up to highest test concentration of 10 μM
From the text: (§2) In this example, two mouse tumor cell lines, KLN205 (lung squamous cell carcinoma) and PAN02 (pancreatic cancer), were characterized.
(§3) See FIGS. 5A through 5D, which are graphs depicting the pERK AlphaLISA® assay.

PAN02 cells (SHP2 G503V) [6] = test: CellTiter-Glo viability in PAN02 cells; type: cell-based, mouse; conditions: PAN02, up to highest test concentration of 10 μM
From the text: as §2, §3

[7] = tested on: KLN205 tumors (SHP2 G503V); test: KLN205 syngeneic tumor model (Example 2); type: in vivo, mouse; conditions: KLN205, DBA/2 mice; RMC-4550 30 mg/kg daily oral
[8] = tested on: Capan-2 tumors (KRAS G12V/wt); test: Capan-2 KRAS G12V/wt xenograft efficacy; type: in vivo, mouse; conditions: RMC-4550 20 mg/kg po every other day; Compound A 100 mg/kg po bid; Day 40
Method: Capan-2 cells were implanted in 50% Matrigel. Animals were randomized and treatment was initiated at average tumor volume of ˜180 mm3. […] Ns=no significance; *** p<0.001 by one-way ANOVA.
Once tumors reached an average size of ˜180 mm3, mice were randomized to treatment groups to start the administration of test articles or vehicle. […] Body weight and tumor volume (using calipers) was measured twice weekly until study endpoints.

[9] = tested on: KLN205 cells (SHP2 G503V); test: CellTiter-Glo viability in KLN205 cells; type: cell-based, mouse; conditions: KLN205, up to highest test concentration of 10 μM
From the text: as §2, §3

PAN02 cells (SHP2 G503V) [10] = test: pERK AlphaLISA in PAN02 cells; type: cell-based, mouse; conditions: PAN02, up to highest test concentration of 10 μM
From the text: as §2, §3

[11] = tested on: SHP2 variants expressed in T-REx-293 (HEK-293) cells; test: pERK AlphaLISA in isogenic T-REx-293-SHP2 cells, EGF stimulated; type: cell-based; conditions: SHP2 G503V
Method: Assay data was plotted and EC50 values were determined using four-parameter concentration-response model in GraphPad Prism 7. Data provided are mean+/−standard deviation of duplicate values from representative experiments.

[12] = tested on: LN229.E76K tumors (PTPN11 E76K); test: LN229.E76K glioblastoma xenograft (Example 8); type: in vivo, mouse; conditions: PO daily; Compound SOS1-(C) 50 mg/kg, RMC-4550 30 mg/kg, cobimetinib […]
Method: 6-7 week athymic nude mice were implanted with LN229.E76K in 50% matirgel (10×10^6 cells/mouse) subcutaneously in the flank. Once tumors reached an average size of 200 mm^3, mice were randomized into treatment groups to start the administration of test articles or control. All treatments were administered daily by oral gavage. Body weight and tumor volume (using calipers) was measured twice weekly until study endpoint.

[13] = tested on: PAN02 tumors (PTPN11 G503V); test: PAN02 PTPN11 G503V syngeneic model (Example 12); type: in vivo, mouse; conditions: PO daily; Compound SOS1-(C) 100 mg/kg for 7 days then 50 mg/kg, abemaciclib 30 mg/kg
Method: (§4) The combinatorial effects of Compound SOS1-(C) with Abemaciclib on tumor cell growth in vivo were evaluated in the murine pancreatic ductal adenocarcinoma PAN02 PTPN11G503V syngeneic model using female C57BL/6J mice (6-7 weeks old). Mice were implanted with PAN02 tumor cells in PBS (5 ×10^6cells/mouse) subcutaneously in the flank. Once tumors reached an average size of ˜130 mm3, mice were randomized to treatment groups to start the administration of test articles or control. All test articles were administered by oral gavage daily. Body weight and tumor volume (using calipers) was measured twice weekly until study endpoints.

[14] = tested on: LN229.E76K tumors (PTPN11 E76K); test: LN229.E76K glioblastoma xenograft (Example 11); type: in vivo, mouse; conditions: PO daily; Compound SOS1-(B) 50 mg/kg, cobimetinib 2.5, and combination
Method: The combinatorial effects of Compound SOS1-(B) with cobimetinib on tumor cell growth in vivo were evaluated in a human engineered model of PTPN11-mutant glioblastoma, LN229.E76K xenograft model using female athymic nude mice (6-7 weeks old). Mice were implanted with LN229.E76K tumor cells in 50% Matrigel (10×10^6cells/mouse) subcutaneously in the flank. Once tumors reached an average size of ˜200 mm3, mice were randomized to treatment groups to start the administration of test articles or control. All test articles were administered by oral gavage daily. Body weight and tumor volume (using calipers) was measured twice weekly until study endpoints.

[15] = tested on: PAN02 tumors (PTPN11 G503V); test: PAN02 PTPN11 G503V syngeneic model (Example 10); type: in vivo, mouse; conditions: PO daily
Method: as §4, with “cobimetinib” for “Abemaciclib”, “mm^3,” for “mm3,”

[16] = tested on: NCI-H358 KRASG12C xenograft; test: In vivo NSCLC K-Ras G12C xenograft model; parameters: species or system BALB/c nude mice; conditions: single agent
Method: (§5) Mice were implanted with NCI-H358 tumor cells in 50% Matrigel (5×10^6 cells/mouse) subcutaneously in the flank. At the indicated tumor volume (dotted line, FIG. 2A), mice were randomized to treatment groups to start the administration of test articles or vehicle. […] Body weight and tumor volume (using calipers) was measured twice weekly until study endpoints.
Mice were implanted with NCI-H358 tumor cells in 50% Matrigel (5×10^6 cells/mouse) subcutaneously in the flank. At indicated tumor volume (dotted line, FIG. 3A), mice were randomized to treatment groups to start the administration of test articles or vehicle. […] Cobimetinib was administered by daily oral gavage at 2.5 mg/kg. The combination of Compound B and cobimetinib at their respective single-agent dose and regimen was also tested. Body weight and tumor volume (using calipers) was measured twice weekly until study endpoints.
as §5, with “At” for “At the”, “4A),” for “2A),”

NCI-H358 cells = test: 72-hour proliferation assay using CellTiter-Glo, NCI-H358; type: cell-based, human; conditions: read-out: EC50, 72-hour proliferation assay
Method: The plate was placed in the Incucyte S3 live cell analysis system (37° C., 5% CO2) and confluence was measured by recording images at 6-hour intervals for a maximum of 40 days, or until wells reached maximal confluence. Media and drug were replaced at 3-4 day intervals. Data are plotted as % confluence over the time course of the experiment for each single agent and respective combination (FIG. 5).

SMILES: C=CC(=O)N1CCN(c2nc(=O)n(-c3c(C)ccnc3C(C)C)c3nc(-c4c(O)cccc4F)c(F)cc23)[C@@H](C)C1 [AMG510, sotorasib]
- sensitivity of SW1573 (SW1573 [1]): insensitive
- sensitivity of cell line (SW1573 [2]): insensitive
- sensitivity of cell line (SW1573 cells): insensitive

SMILES: COC1(C(=O)N2Cc3nc(Cl)nc(C[C@H](C)c4cc(N)cc(C(F)(F)F)c4)c3C2)CCOCC1 [Compound SOS1-(A)]
- inhibition of tumor growth in vivo ([3]; PAN02, immunocompetent mice, Compound SOS1-(A) 100 mg/kg daily oral): substantially higher levels of tumor growth inhibition
- inhibition of tumor growth in vivo [4]: near complete inhibition of tumor growth
- inhibition of tumor growth in vivo (LN229 tumors (SHP2 A72S)): near complete inhibition of tumor growth

SMILES: Cc1nc(N2CCC3(CC2)CO[C@@H](C)[C@H]3N)c(CO)nc1-c1cccc(Cl)c1Cl [RMC-4550]
- inhibition of pERK [5]: low or moderate inhibition
- tumor growth inhibition ([3]; PAN02, C57/B6 mice, RMC-4550 40 mg/kg every 2 days oral): less than 50%
- inhibition of cell growth (PAN02 cells (SHP2 G503V) [6]): low or moderate inhibition
- tumor growth inhibition [7]: less than 50%
- TGI [8]: 39%
- inhibition of cell growth [9]: low or moderate inhibition
- inhibition of pERK (PAN02 cells (SHP2 G503V) [10]): low or moderate inhibition
- IC50 [11]: > 30000 nM
- tumor growth inhibition (TGI) [12]: 7%

SMILES: CCN1CCN(Cc2ccc(Nc3ncc(F)c(-c4cc(F)c5nc(C)n(C(C)C)c5c4)n3)nc2)CC1 [abemaciclib]
- tumor growth inhibition (TGI) [13]: 52%

SMILES: O=C(c1ccc(F)c(F)c1Nc1ccc(I)cc1F)N1CC(O)([C@@H]2CCCCN2)C1 [cobimetinib]
- tumor growth inhibition (TGI) [14]: 62%
- tumor growth inhibition (TGI) ([15]; Compound SOS1-(C) 100 mg/kg, cobimetinib […]): 38%
- tumor growth inhibition (TGI) ([15]; cobimetinib 5 mg/kg): 49%
- tumor growth response ([16]; A 100 mg/kg po daily 28 days, B 50 mg/kg iv twice weekly, cobimetinib […] po daily, C 60 mg/kg iv once weekly): tumor growth inhibition
- mice with tumor regression (of 10) ([16]; regression = greater than 10% reduction of tumor volume, SHP2 inhibitor 30 mg/kg po daily): no tumor regressions
- tumor growth inhibition (TGI) [12]: 41%

- EC50 (NCI-H358 cells): 10 nM
SMILES: CC(=O)Nc1cccc(-n2c(=O)n(C3CC3)c(=O)c3c(Nc4ccc(I)cc4F)n(C)c(=O)c(C)c32)c1 [trametinib]

— US20250195521A1 (Revolution Medicines, Inc., priority 2020, published 2025)
